Results: patent US20240246920A1, “TRIAZOLE DERIVATIVES WITH ANTIFUNGAL ACTIVITY” (King's College London, priority 2020, published 2024)
In brackets after ≈: the same amount, converted by molar mass. Where two headings read alike, the source gives them in different places.

What was measured:
C. parapsilosis NCPF3209 = experiment: microbe, parasite or virus in culture; assay type: cell-based, Candida parapsilosis; settings: Lodderomyces parapsilosis
Procedure, shortened: (§1)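 MIC taken as lowest concentration inhibiting growth ≥50% relative to drug-free control, from OD530 after 24 hours at 37° C. Fungi at 0.5-5×10^5/mL were exposed to serially diluted compound in RPMI 1640/MOPS/2% glucose medium adjusted to pH 7.0.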

C. auris strain TDG1912 = experiment: Galleria mellonella infection model, larval survival; assay type: in vivo; settings: G. mellonella infected with C. auris TDG1912; survival over 120 hours
Experimental: The effects of test compounds in-vivo was assessed using a Galleria mellonella infection model.
G. mellonella were injected in a proleg with 10 μL of C. auris strain TDG1912 (OD4) at a concentration of 1×10^6 cfu/10 μL using a Hamilton syringe and left for 30 minutes to recover from injection and to allow infection to begin. The G. mellonella were then injected with 10 μL of the compound of the invention at either 50 mg/kg (10% DMSO) or 20 mg/kg (4% DMSO) or PBS containing 10% DMSO as an infection-only control. 10 larvae were selected for each treatment, and the experiment was repeated 3 times for the test compound and fluconazole. Survival of larvae was monitored for a 5 day period and results are presented as % survival over 120 hours (see FIG. 1).

Candida auris TDG2506 = experiment: microbe, parasite or virus in culture; assay type: cell-based; settings: Candidozyma auris, TDG2506; Table 4, extended panel; 24 hours, ≥50% inhibition; read-out: MIC Candida auris TDG2506
Procedure, shortened: (§2)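 MIC = lowest concentration inhibiting growth ≥50% relative to drug-free control, read by OD530 nm after 24 h at 37° C. Medium: RPMI 1640/MOPS/2% glucose, pH 7.0. Inoculum 0.5-5×10^5/mL.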

Candida auris TDG2211 = experiment: microbe, parasite or virus in culture; assay type: cell-based; settings: Candidozyma auris, TDG2211; Table 4, extended panel; 24 hours, ≥50% inhibition; read-out: MIC Candida auris TDG2211
Procedure, shortened: as §2

C. auris 8977 = experiment: Candida panel MIC, serial dilution in 96-well plates; assay type: cell-based, Candida auris; settings: Candidozyma auris, 8977; Table 4, extended panel; 24 hours, ≥50% inhibition; read-out: MIC C. auris 8977
Procedure, shortened: as §2

C. auris 8984 = experiment: as above; assay type: cell-based, Candida auris; settings: Candidozyma auris, 8984; Table 4, extended panel; 24 hours, ≥50% inhibition; read-out: MIC C. auris 8984
Procedure, shortened: as §2

C. auris 8971 = experiment: as above; assay type: cell-based, Candida auris; settings: Candidozyma auris, 8971; Table 4, extended panel; 24 hours, ≥50% inhibition; read-out: MIC C. auris 8971
Procedure, shortened: as §2

C. albicans NCPF3281 = experiment: as above; assay type: cell-based, Candida albicans; settings: NCPF3281, read-out: MIC C. albicans NCPF3281
Procedure, shortened: (§3)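 Overnight starter cultures were diluted to OD600 0.01 and added to serially diluted compound (128 to 0.25 μg/mL) in MOPS-buffered RPMI with 2% glucose, pH 7.0, giving 0.5-5×10^5 cells/mL. After 24 h at 37 °C, OD530 was measured and the ≥50% inhibition endpoint taken as MIC.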

C. auris TDG1912 = experiment: as above; assay type: cell-based; settings: Candidozyma auris, TDG1912; Table 4; 24 hours, ≥50% inhibition; read-out: MIC C. auris TDG1912
Procedure, shortened: as §3

Candida auris TDG1102 = experiment: as above; assay type: cell-based; settings: Candidozyma auris, TDG1102; Table 4, extended panel; 24 hours, ≥50% inhibition; read-out: MIC Candida auris TDG1102
Procedure, shortened: as §3

C. tropicalis NCPF8760 = experiment: as above; assay type: cell-based
Procedure, shortened: as §3

Candida auris TDG2512 = experiment: as above; assay type: cell-based; settings: Candidozyma auris, TDG2512; Table 4, extended panel; 24 hours, ≥50% inhibition; read-out: MIC Candida auris TDG2512
Procedure, shortened: as §3

C. krusei NCPF3876 = experiment: microbe, parasite or virus in culture; assay type: cell-based, Candida krusei; settings: Pichia kudriavzevii
Procedure, shortened: as §1

C. glabrata NCPF8018 = experiment: Candida panel MIC, serial dilution in 96-well plates; assay type: cell-based, Candida glabrata; settings: Nakaseomyces glabratus
Procedure, shortened: as §1

C. albicans 3990 = experiment: Candida albicans panel MIC; assay type: cell-based; settings: Table 6, Candida albicans panel
Experimental: (§4) The minimum inhibitory concentration of test compounds were determined in a panel of Candida species (see Table 4 below), using the a serial dilution method in 96-well plates using the following protocol.
(§5) Starter cultures of fungal strains to be tested were grown in 3 mL of RPMI 2% glucose media incubated at 37° C. with shaking at 200 rpm overnight. The culture media used was 900 mL H2O; 10.4 g RPMI 1640 (with L-glutamine and a pH indicator but without bicarbonate); 34.5 g MOPS and 18 g glucose. The pH of the media was adjusted to 7.0 with 1 M sodium hydroxide.
(§6) Solutions of the compound to be tested were prepared by dissolving the compound in DMSO and subsequently into media to the desired concentrations. 200 μL of compound solution was then added to the wells of the 96-well plate using a serial dilution method row-by row of the plate to give a compound concentration gradient across the plate of from 128 μg/mL to 0.25 μg/mL. The last two rows of each plate were control rows containing the culture media alone and the media plus fungi.
(§7) The fungi starter cultures were diluted 1:10 in water in cuvettes. This was then further diluted to an optical density (OD600) of 0.01 in media. 100 μL of the fungi was added to each well giving a starting concentration of fungus of 0.5-5×10^5/mL. One species of fungus was used on each plate. The plates were then held at 37° C. for 24 hours.
(§8) A plate reader was used to measure growth in each well at OD530 nm and the MIC was determined for each test compound. The MIC is defined as the lowest concentration giving rise to inhibition of ≥50% of that of the drug-free control well containing the fungus and media.
(§9) The compounds shown in Table 6 were tested against a further panel of Candida albicans.

C. albicans 8112 = experiment: Candida albicans panel MIC; assay type: cell-based; settings: Table 6, Candida albicans panel
Experimental: as §4, §5, §6, §7, §8, §9

C. albicans 3882 = experiment: Candida albicans panel MIC; assay type: cell-based; settings: Table 6, Candida albicans panel
Experimental: as §4, §5, §6, §7, §8, §9

C. albicans 3645 = experiment: Candida albicans panel MIC; assay type: cell-based; settings: Table 6, Candida albicans panel
Experimental: as §4, §5, §6, §7, §8, §9

C. albicans 3881 = experiment: Candida albicans panel MIC; assay type: cell-based; settings: Table 6, Candida albicans panel
Experimental: as §4, §5, §6, §7, §8, §9

C. albicans 3363 = experiment: Candida albicans panel MIC; assay type: cell-based; settings: Table 6, Candida albicans panel
Experimental: as §4, §5, §6, §7, §8, §9

C. albicans 3880 = experiment: Candida albicans panel MIC; assay type: cell-based; settings: Table 6, Candida albicans panel
Experimental: as §4, §5, §6, §7, §8, §9

[1] = tested on: Galleria mellonella larvae; experiment: Toxicity to larvae in the Galleria mellonella model; assay type: in vivo; settings: dose of 50 mg/kg

With `OC(CN1CCC(Nc2ccc(OCCN3CCOCC3)cc2)CC1)(Cn1cncn1)c1ccc(F)cc1F` (stereo not drawn) [Example 6, 2-(2,4-Difluorophenyl)-1-(4-((4-(2-morpholinoethoxy)phenyl)amino)piperidin-1-yl)-3-(1H-1,2,4-triazol-1-yl)propan-2-ol] the MIC (C. parapsilosis NCPF3209; NCPF3209, read-out: MIC C. Parapsilosis NCPF3209) was 0.015 µg/mL (≈ 0.0276 µM), the MIC (C. parapsilosis NCPF3209; NCPF3209, Table 4, common panel, 24 hours, ≥50% inhibition, read-out: MIC C. parapsilosis NCPF3209) was 0.015 µg/mL (≈ 0.0276 µM) and the “Protection against multi-drug resistant C. auris (larval survival)” value (C. auris strain TDG1912) was “statistically significant protection”. The MIC (Candida auris TDG2506) was 0.25 µg/mL (≈ 0.461 µM), the MIC (Candida auris TDG2211) was 0.5 µg/mL (≈ 0.921 µM) and the MIC (C. auris 8977) was 0.06 µg/mL (≈ 0.111 µM). For the same compound, the MIC (C. auris 8984) was 0.125 µg/mL (≈ 0.23 µM), the MIC (C. auris 8971) was 0.03 µg/mL (≈ 0.0553 µM) and the MIC (C. albicans NCPF3281; Candida albicans, Table 4, common panel, 24 hours, ≥50% inhibition) was 0.004 µg/mL (≈ 0.00737 µM). For the same compound, the MIC (C. albicans NCPF3281; Table 6, Candida albicans panel) was no more than 0.125 µg/mL, the MIC (C. auris TDG1912) was 0.125 µg/mL (≈ 0.23 µM) and the MIC (Candida auris TDG1102) was 0.12 µg/mL (≈ 0.221 µM). For the same compound, the MIC (C. tropicalis NCPF8760; NCPF8760, Table 4, common panel, 24 hours, ≥50% inhibition, read-out: MIC C. tropicalis NCPF8760) was 0.008 µg/mL (≈ 0.0147 µM), the MIC (C. tropicalis NCPF8760; NCPF8760, read-out: MIC C. Tropicalis NCPF8760) was 0.008 µg/mL (≈ 0.0147 µM) and the MIC (Candida auris TDG2512) was 0.015 µg/mL (≈ 0.0276 µM). For the same compound, the MIC (C. krusei NCPF3876; NCPF3876, read-out: MIC C. Krusei NCPF3876) was 0.125 µg/mL (≈ 0.23 µM), the MIC (C. krusei NCPF3876; NCPF3876, Table 4, common panel, 24 hours, ≥50% inhibition, read-out: MIC C. krusei NCPF3876) was 0.125 µg/mL (≈ 0.23 µM) and the MIC (C. glabrata NCPF8018; NCPF8018, read-out: MIC C. Glabrata NCPF8018) was 2 to 4 µg/mL (≈ 3.69 to 7.37 µM). For the same compound, the MIC (C. glabrata NCPF8018; NCPF8018, Table 4, common panel, 24 hours, ≥50% inhibition, read-out: MIC C. glabrata NCPF8018) was 0.25 µg/mL (≈ 0.461 µM), the MIC (C. albicans 3990) was 0.25 µg/mL (≈ 0.461 µM) and the MIC (C. albicans 8112) was 0.0156 µg/mL (≈ 0.0287 µM). It also gave an MIC (C. albicans 3882) of 0.5 µg/mL (≈ 0.921 µM), an MIC (C. albicans 3645) of 0.0156 µg/mL (≈ 0.0287 µM) and an MIC (C. albicans 3881) of 0.5 µg/mL (≈ 0.921 µM). The MIC (C. albicans 3363) was 0.25 µg/mL (≈ 0.461 µM), the MIC (C. albicans 3880) was 0.25 µg/mL (≈ 0.461 µM) and the “Toxicity to the larvae” value [1] was “No toxicity”.
